Results on 3 compounds are retold here after article PMC7894426, “Influence of verapamil on the pharmacokinetics of rotundic acid in rats and its potential mechanism” (Pharmaceutical Biology, 2021).

Series [1] in a line: Bidirectional transport across MDCKII-Mock cell monolayers. In kind it is in vitro ADME, canine. The settings on record: dog, MDCK, MDCKII-Mock, 20 min; for efflux ratio at 20 min: read-out: RE (efflux ratio). As to the method: (§1) The qualified monolayers were used for transport studies. […] Each experiment was carried out in triplicate.
For series [2], the system named is P-gp. Kind of series: Bidirectional transport across Caco-2 cell monolayer. In kind it is in vitro ADME, human. As to conditions: human, Caco-2, rhodamine-123 10 µM. As to the method:
as §1
For orientation: Passage across Caco-2 layers is used to estimate intestinal permeability.

Series [3] deals with P-gp (Homo sapiens, UniProt P08183). Nature of the series: Bidirectional transport across MDCKII-MDR1 cell monolayers (P-gp substrate assessment).
Experimental: MDCKII-Mock and MDCKII-MDR1 cells were given as a gift by Fuji Biomedix Co., Ltd. (Japan) and cultured in DMEM supplemented with 10% FBS and 1% antibiotic (10,000 U/mL penicillin and 10 mg/mL streptomycin). Caco-2 cell line, the human epithelial cell used in this assay, was purchased from the Cell Bank of the Chinese Academy of Sciences (Shanghai, China) and maintained between 30 and 45 passages. It was cultured according to the previous report (Guo et al. [2018]; Xiang et al. [2020]). Briefly, the Caco-2 cells were cultured in DMEM supplemented with 10% FBS, 1% NEAA, and 1% antibiotic (10,000 U/mL penicillin and 10 mg/mL streptomycin). All cells were maintained in a 5% CO2 atmosphere and 90% relative humidity at 37 °C.
For transport studies, the MDCKII-Mock, MDCKII-MDR1, and Caco-2 cells were seeded at a density of 2 × 10^5 cells/mL on Costar Transwell inserts (1.12 cm^2 surface, polycarbonate, 12 mm diameter, 0.4 µm pore size). MDCKII-Mock and MDCKII-MDR1 cells were cultured for 5–7 days in medium, for the first four days, the medium was replaced freshly every two days, and then daily. The Caco-2 cells were cultured for 19–21 days in the medium. For the first 2 weeks, the medium was replaced freshly every two days, and then daily. […] The transepithelial electrical resistance (TEER) of the monolayer cells was measured by Millcell ERS-2 (Millipore, USA), and only the monolayer with TEER exceeding 150 Ω·m^2 (MDCKII-Mock and MDCKII-MDR1 cells) and 400 Ω·m^2 (Caco-2 cells) were used for the transport experiment. The membrane integrity and transport function of MDCKII-Mock, MDCKII-MDR1, and Caco-2 cell monolayers were further verified with Lucifer yellow and Rhodamine-123. The qualified monolayers were used for transport studies.
Before the transport studies, the media in both chambers of the transwell were replaced by warm (37 °C) Hank’s balanced salt solution (HBSS), and then the MDCKII-Mock, MDCKII-MDR1, and Caco-2 cell monolayers were incubated at 37 °C and 5% CO2 for 20 min. […] Our transport studies included absorptive direction transport from the apical (AP) side to the basolateral (BL) side and secretory direction transport from the BL side to the AP side. […] After administration, the transwell plate was placed in a thermostatic oscillator shaking at 60 rpm and 37 °C. At 10, 20, 40 and 60 min, respectively, 50 µL incubating sample aliquot was collected from the receiver chamber and immediately replaced by the same volume of fresh HBSS (37 °C). In addition, the membrane integrity of MDCKII-Mock, MDCKII-MDR1, and Caco-2 cell monolayers were evaluated with Lucifer yellow (30 µM) and TEER value, and the efflux activity of P-gp was validated using a typical P-gp substrate rhodamine-123 (10 µM).
The parameters Papp, RE, and NRE were calculated using the following equation: Papp=(ΔQ/Δt)×[1/(A×C0)]
The conditions of series [4]: rats; ref Wang et al. [1994]; cited from earlier work.
The test system of series [5] is MDCKII-Mock cell monolayers. Nature of the series: Bidirectional transport across MDCKII-Mock cell monolayers. The series is classed as in vitro ADME, canine. As to conditions: MDCKII-Mock monolayer integrity check, Lucifer yellow 30 µM. As to the method: as §1
The next series concerns Caco-2 cell monolayer. Nature of the series: Bidirectional transport across Caco-2 cell monolayer. In kind it is in vitro ADME, human. As to conditions: Caco-2 monolayer integrity check, Lucifer yellow 30 µM. As to the method:
as §1

[6] abbreviates: pH 7.4, with verapamil 50 µM, + 50 µM verapamil.

Read-outs that look alike come from different tables or passages of the source.

Usually Papp A→B stands for the apparent permeability from the apical to the basolateral side of a cell layer. For orientation: Papp B→A means the apparent permeability from the basolateral to the apical side of a cell layer. The bioavailability is the share of a dose that reaches the circulation, judged against a reference dose that is usually intravenous.

P-gp (Homo sapiens, UniProt P08183), sequence (P08183 whole entry): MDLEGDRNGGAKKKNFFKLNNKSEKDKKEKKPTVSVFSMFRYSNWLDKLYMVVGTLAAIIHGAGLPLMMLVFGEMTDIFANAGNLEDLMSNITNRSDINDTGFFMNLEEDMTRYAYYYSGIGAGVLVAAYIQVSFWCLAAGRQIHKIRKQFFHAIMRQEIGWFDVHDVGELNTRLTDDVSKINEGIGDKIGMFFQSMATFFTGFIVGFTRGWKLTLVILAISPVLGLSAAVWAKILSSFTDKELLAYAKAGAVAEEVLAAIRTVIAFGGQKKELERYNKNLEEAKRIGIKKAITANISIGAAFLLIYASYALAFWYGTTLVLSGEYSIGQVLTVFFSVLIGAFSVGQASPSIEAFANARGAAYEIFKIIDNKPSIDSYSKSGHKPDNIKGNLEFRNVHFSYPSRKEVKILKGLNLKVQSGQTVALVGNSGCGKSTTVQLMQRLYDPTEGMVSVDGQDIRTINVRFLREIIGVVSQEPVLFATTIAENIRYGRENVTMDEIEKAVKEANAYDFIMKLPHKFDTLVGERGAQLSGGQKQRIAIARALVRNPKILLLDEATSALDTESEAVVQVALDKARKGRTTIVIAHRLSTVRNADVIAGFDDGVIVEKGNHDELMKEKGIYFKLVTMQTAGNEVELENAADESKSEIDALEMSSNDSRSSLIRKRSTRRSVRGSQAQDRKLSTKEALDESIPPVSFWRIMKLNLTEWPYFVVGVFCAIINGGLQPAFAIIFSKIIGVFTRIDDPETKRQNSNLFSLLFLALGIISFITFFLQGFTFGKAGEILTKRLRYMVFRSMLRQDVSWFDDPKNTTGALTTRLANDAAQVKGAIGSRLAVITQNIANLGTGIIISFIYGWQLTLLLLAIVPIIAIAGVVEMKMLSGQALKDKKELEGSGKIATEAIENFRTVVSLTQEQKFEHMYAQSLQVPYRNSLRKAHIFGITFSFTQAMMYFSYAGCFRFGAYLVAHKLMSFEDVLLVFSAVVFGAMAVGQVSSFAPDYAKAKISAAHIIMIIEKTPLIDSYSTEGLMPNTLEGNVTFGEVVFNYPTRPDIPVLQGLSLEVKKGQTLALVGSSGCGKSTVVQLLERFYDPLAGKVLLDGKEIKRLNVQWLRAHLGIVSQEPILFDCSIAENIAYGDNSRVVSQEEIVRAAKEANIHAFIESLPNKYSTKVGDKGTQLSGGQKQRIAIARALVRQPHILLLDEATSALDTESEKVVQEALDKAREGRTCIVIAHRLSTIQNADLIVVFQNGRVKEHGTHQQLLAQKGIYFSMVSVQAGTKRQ

Regarding `COC(=O)c1ccccc1-c1c2ccc(=N)cc-2oc2cc(N)ccc12` [Rhodamine 123, rhodamine-123], the Papp A→B at 20 min in series [1] (setting [6]) was 0.409 ± 0.0686 ×10⁻⁶ cm/s; in series [1] (pH 7.4, without verapamil) it was 0.378 ± 0.0314 ×10⁻⁶ cm/s; at P-gp [3] (dog, MDCK-MDR1, pH 7.4) it was 0.193 ± 0.0535 ×10⁻⁶ cm/s. Besides, the basolateral-to-apical permeability (Papp B→A) at 20 min in series [1] (setting [6]) was 0.538 ± 0.0642 ×10⁻⁶ cm/s; in series [1] (pH 7.4, without verapamil) it was 0.481 ± 0.0998 ×10⁻⁶ cm/s; on P-gp [3] (dog, MDCK-MDR1, pH 7.4), 1.78 ± 0.293 ×10⁻⁶ cm/s. In addition, the efflux ratio at 20 min in series [1] (setting [6]) was found to be 1.32; in series [1] (pH 7.4, without verapamil), 1.27; at P-gp [3] (dog, MDCK-MDR1, pH 7.4) it was 9.2. The efflux ratio at 10 µM is 4.86 with P-gp [2] (pH 7.4, with verapamil 50 µM, verapamil present (50 µM)) and 15.6 with P-gp [2] (pH 7.4, without verapamil).
On to `CC1(C)[C@@H](O[C@H]2O[C@H](C(=O)O)[C@@H](O)[C@H](O)[C@H]2O[C@@H]2O[C@H](C(=O)O)[C@@H](O)[C@H](O)[C@H]2O)CC[C@]2(C)[C@H]3C(=O)C=C4[C@@H]5C[C@@](C)(C(=O)O)CC[C@]5(C)CC[C@@]4(C)[C@]3(C)CC[C@@H]12` [glycyrrhizin], for which the bioavailability in series [4] was 4.0%.
For the compound Lucifer yellow, the “Papp(AP→BL)” value is 0.463 ± 0.0568 × 10^−6 cm/s in series [5]; 0.268 ± 0.0346 × 10^−6 cm/s in the series with Caco-2 cell monolayer; 0.432 ± 0.0468 × 10^−6 cm/s on P-gp [3] (MDCKII-MDR1 monolayer integrity check, Lucifer yellow 30 µM).
